“And” between values parts separate entries of the source, which are not always exact repeats. Identical values can stand only once. Marks after values point to notes of the source that are not given here.
What was measured:
Format in all cases: in vivo
soy [1] = test: Drought resistance in soy (foliar spray); details: vs untreated control
Description: (§1) The effectiveness of peptide treatment in reducing drought stress was assessed in […]. 3.5 inch pots were filled with Sunshine #1 soil (SunGro Horticulture), fertilized with a 20-10-20 mixture. The soil was soaked and drained overnight. Seeds (soy, manually inspected to ensure uniform seed size) were planted at a depth of half inch for germination. Plants were grown in a greenhouse under 16 hour light days at >70° F. and 8 hour dark nights at >65° F. Prior to drought conditions, the plants were well-watered.
When the plants reached the growth stage when first trifoliate expanded, plants were culled to achieve a uniform height (abnormally large and small plants were removed). Plants were then randomly assigned to control (spray without peptide) or treatment (spray with peptide) groups and heights were measured. Peptide was made up in a solution of 0.2 μg/ml or 2μg/ml in distilled water+0.04% Tween-20, and applied as a fine mist from a spray bottle until the solution drips from the leaves. After the peptide solutions were dried, the plants were again randomized in a randomized complete block design. Cyclic drought stress was initiated after the peptide treatment. Plants were subjected to at least three drought cycles of drought stress (3-5 days of withholding water and 1 day irrigated with saturating amount of water) before harvesting.
(§2) The drought test phase ended after 2-3 weeks. At that time, the plant height was again measured and the growth rate was calculated as the difference between this and the previously-recorded height. The above-ground part portions of the plants were harvested and weighed to obtain fresh weight. The above-ground portion was also dried in an oven at 70° C. for 72 hours to obtain dry weight. All calculations were compared with matched untreated control plants.
The drought testing procedure was carried out in soy using a treatment of P12-2, P13-4, P13-5, P13-7, P13-3, P13-14, P13-2, and P13-15 (SEQ ID NOs: 6, 10, 11, 13, 9, 20, 8, and 21). Asterisks indicate statistical significance by P-value (*: P<0.1 and **: P<0.05)

corn [2] = test: Drought resistance in corn (foliar spray); details: corn, vs untreated control
Description: as §1, with “(either corn or soy,” for “(soy,”, “1” for “half”
When the plants reached the V1 stage, plants were culled to achieve a uniform height (abnormally large and small plants were removed). Plants were then randomly assigned to control (spray without peptide) or treatment (spray with peptide) groups and heights were measured. Peptide was made up in a solution of 0.2 μg/ml or 2μg/ml in distilled water+0.01% Tween-20, and applied as a fine mist from a spray bottle until the solution drips from the leaves. After the peptide solutions were dried, the plants were again randomized in a randomized complete block design. Drought stress was initiated after the peptide treatment. This was caused by maintaining the water level at 25-50% of the maximum capacity for water (capacity was decided as the weight of the pot filled with saturated soil minus the weight of the filled pot prior to adding water).
as §2
The drought testing procedure was carried out in corn using a treatment of P12, P13-10, P13-11, P13-12, P13-14, P13-4, and P13-15 (SEQ ID NOs: 5, 16, 17, 18, 20, 10, and 21). Asterisks indicate statistical significance by P-value (*: P<0.1 and **: P<0.05)

corn [3] = test: Drought resistance in seed-coated corn; details: for Drought tolerance activity in corn, result in words: corn seed treatment; for % Change Dry Weight / % Change Fresh Weight: vs mock
Description: The effectiveness of peptide treatment in reducing the effects of drought stress was assessed in corn using a seed treatment strategy. This strategy largely mirrors example 2, except that the seeds were coated with a peptide formulation rather than a foliar spray application.
Seeds were first sieved using mesh screens to a uniform size (21-23/64 inches). The seeds were then coated with a mixture of peptide, Unicoat™ seed coat polymer, and a minimal volume of water in a Hege 11 Liquid Seed Treater (Wintersteiger) according to manufacturer recommendations. Seeds were coated with one of the following: (i) 0.12 μg peptide/seed, (ii) […], or (iii) a ‘mock’ treatment that included no peptide. The amount of peptide per seed assumes complete transfer of the peptide to seed surfaces in the seed coating chamber. Losses during coating were not considered.
(§3) 3.5 inch pots were filled (approximately 0.2 L per pot) with Sunshine #1 mix (SunGro Horticulture), fertilized with 14-14-14 N,P,K Osmocote (Everris), and mixed for 20 minutes using a soil mixer M-5. Seeds were planted at a depth of 0.5 inch for germination. The pots were immediately irrigated by submergence then drained after about an hour. For each treatment group, 24 replicate seeds were planted. Plants were grown in a greenhouse under 16 hour light days at ˜75° F. and 8 hour dark nights at ˜65° F. Prior to drought conditions, the plants were well-watered.
Three days after planting, the plants were randomized using a complete block design and subjected to a cyclic drought stress. Drought stress was imposed by withholding water for 2-3 days until the majority of plants were under medium to severe water stress. The severity of the stress was determined by the weight of the pot and visual determination of leaf curling. Once drought stress was attained, the pots were watered to full saturation. Full Saturation (100% pot capacity) is defined as the weight of the pot filled with water-saturated soil minus the weight of the filled pot prior to adding water. Drought stress was imposed for a total of 18 days.
(§4) At the end of the experiment (18 days after initiation of drought stress), the plant was then harvested for fresh and dry weights. Individual plants were cut near the soil surface and weighed immediately (fresh weight). The plants were then placed into labeled brown paper bags and dried in a 70° C. oven for 72 hours. A dry weight was then obtained.
The following calculation was performed on the collected data: Fresh weight at harvest and dry weight at harvest for the plants grown from peptide-treated seeds were expressed as a % change relative to the ‘mock’ treated plants.

[4] = test system: tobacco mosaic virus (TMV); test: Induction of resistance to tobacco mosaic virus in tobacco (foliar spray); details: for Effectiveness Covered (% decline in TMV lesions vs UTC): covered leaf (systemic response); for Effectiveness Uncovered (% decline in TMV lesions vs UTC): uncovered leaf (local response)
Description: Peptides were tested for the induction of resistance to tobacco mosaic virus (TMV) in tobacco. Briefly, three tobacco plants at 6-8 weeks old were selected per group (samples and controls). The bottom-most leaf of the plant was covered and the plant was sprayed with a solution of water (untreated control—UTC), peptide, or Proact (positive control). The spray was applied until the leaves were fully wetted, indicated by liquid dripping from the leaves. The plants were then allowed to dry and the leaf covering was removed.
Three days post-treatment, the previously-covered leaf and a leaf on the opposite side of the plant were then lightly dusted with diatomaceous earth and 20 ul of a 1.7 μg/ml solution of purified tobacco mosaic virus was applied. The TMV solution was then spread across the leaf surface by lightly rubbing solution and the diatomaceous earth across the surface of the leaves. Two minutes after inoculation, the diatomaceous earth was rinsed off the leaves with water. 3 days after TMV inoculation, the leaves were scored based on the number of TMV lesions observed. The leaf was also scored for signs of the hypersensitive response, including yellowing and wilting of the affected leaves.
Effectiveness described in Table 5 refers to the % decline in TMV lesions on treated vs UTC plants. A reduction of TMV on covered leaves indicates a systemic immune response in the plant while reduction on uncovered leaves indicates a local response. Asterisks indicate that the P-value derived from a T-test was <0.05.

soy [5] = test: Drought resistance in seed-treated soy; details: for Result in the seed treated drought study for soy, in words: soy seed treatment; for % Change Dry Weight / % Change Fresh Weight: soy seed treatment 0.1 μg/seed, vs mock
Description: The effectiveness of peptide treatment in reducing drought stress was assessed in soy using a seed treatment strategy. This strategy largely mirrors examples 3 and 4.
Seeds were first sieved using mesh screens to a uniform size (14-17 mesh). The seeds were then coated with a mixture of peptide and Unicoat™ seed coat polymer in a Hege 11 Liquid Seed Treater (Wintersteiger) according to manufacturer recommendations. […]
as §3
Seven days after germination the heights of the plants were measured. This was determined as the distance between the soil surface and the shoot apical meristems (buds). The plants were randomized using a complete block design and subjected to a cyclic drought stress. Drought stress was imposed by withholding water for 3-4 days until the majority of plants were under medium to severe water stress. The severity of the stress was determined by the weight of the pot and visual determination of loss of turgor in the leaves (drooping). Once drought stress was attained, the pots were watered to full saturation. Full Saturation (100% pot capacity) is defined as the weight of the pot filled with water-saturated soil minus the weight of the filled pot prior to adding water. Drought stress was imposed for a total of 18 days.
as §4, with “the plant above the soil surface was then” for “the plant was then”, “then obtained. The following calculation was performed on the collected data: Fresh weight at harvest, and dry weight at harvest for the peptide-treated plants were expressed as a % change relative to the ‘mock’ treated plants.” for “then obtained.”

[6] = corn seed treatment 0.12 μg/seed
[7] = corn seed treatment 1.05 μg/seed

Sequence | Dry Weight Increase (soy [1]; foliar spray 2 μg/ml) | Fresh Weight Increase (soy [1]; foliar spray 2 μg/ml) | % Change Dry Weight (corn [3]; [6]) | % Change Fresh Weight (corn [3]; [6]) | Dry Weight Increase (soy [1]; foliar spray 0.2 μg/ml) | Fresh Weight Increase (soy [1]; foliar spray 0.2 μg/ml) | % Change Dry Weight (corn [3]; [7]) | % Change Fresh Weight (corn [3]; [7]) | further results
GQTSGMSPMEQLMKIFADITQSLFG (P13-15 peptide) [Peptide P13-15] | 2.07% | 5.38* % |  |  |  |  |  |  | Dry Weight Increase (corn [2]; foliar spray 0.2 μg/ml): 6.21%; Fresh Weight Increase (corn [2]; foliar spray 0.2 μg/ml): 2.92%
LEELEELLEIFEEIEEELFEE (P13-7 peptide) [Peptide P13-7] | 4.50* % | 5.80* % | 4.77** % | 5.6* % |  |  |  |  | Drought tolerance activity in corn, result in words (corn [3]): preservation of activity
QTGDDSLSGAGQTSGMSPMEQLMKIFADITQSLFGDQ (P13-13 peptide) [Peptide P13-13] |  |  |  |  |  |  |  |  | Effectiveness Covered (% decline in TMV lesions vs UTC) ([4]; 20 μg/ml spray): 38.5%; Effectiveness Uncovered (% decline in TMV lesions vs UTC) ([4]; 20 μg/ml spray): 36.6%
TSGLSPLEQLLKIFADITQSLFG (P13-2 peptide) [Peptide P13-2] | 14.54** % | 15.56** % |  |  | 8.70** % | 7.84** % | 0.38% | 3.67% | 
MSPMEQLMKIFADITQSLFEEEE (P13-4 peptide) [Peptide P13-4] |  |  |  |  | 4.45* % | 7.75** % |  |  | Dry Weight Increase (corn [2]; foliar spray 2 μg/ml): 0.06%; Fresh Weight Increase (corn [2]; foliar spray 2 μg/ml): −2.77%
TSGLSPLEQLLKIFAEITQSLFG (P13-3 peptide) [Peptide P13-3] | 2.54% and 6.07** % | 5.90** % and 13.61** % | 2.81% | 1.49% | 8.47** % | 11.43** % |  |  | 
QTGDDSLSGAGQTSGMSPMEQLMKIFADITQSLFGDQDG (P12 peptide) [Peptide P12] |  |  |  |  |  |  |  |  | Effectiveness Covered (% decline in TMV lesions vs UTC) ([4]; 10 μg/ml spray): 66* %; Effectiveness Uncovered (% decline in TMV lesions vs UTC) ([4]; 10 μg/ml spray): 53* %; Dry Weight Increase (corn [2]; foliar spray 2 μg/ml): 6.28** %; Fresh Weight Increase (corn [2]; foliar spray 2 μg/ml): 4.87* %
AGQTSGMSPLEQLMKIFADITQSLFGDQDG (P13-40 peptide) [Peptide P13-40] |  |  |  |  |  |  | 0.76% | 5.86* % | Result in the seed treated drought study for soy, in words (soy [5]): significant results; % Change Dry Weight (soy [5]): 10.27** %; % Change Fresh Weight (soy [5]): 12.53** %
LSPLEQLMKIFADITQSLFEEEE (P13-5 peptide) [Peptide P13-5] | 4.36% | 9.73** % |  |  | 6.93** % | 12.23** % | 5.07* % | 5.66** % | Drought tolerance activity in corn, result in words (corn [3]): supported corn drought tolerance
AGQTSGMSPMEQLMKIFADITQSLFGDEDG (P13-44 peptide) [Peptide P13-44] |  |  | 2.73% | 7.76** % |  |  | 3.44% | 9.15** % | Result in the seed treated drought study for soy, in words (soy [5]): significant results; % Change Dry Weight (soy [5]): 10.93** %; % Change Fresh Weight (soy [5]): 10.54** %
QTGDDSLSGAGQTSGMSPMEQLMKIFADITQSLFG (P13-14 peptide) [Peptide P13-14] |  |  | 3.77% | 9.11** % | −3.68** % | −2.86% | 7.92** % | 11.83** % | Dry Weight Increase (corn [2]; foliar spray 2 μg/ml): 2.48%; Fresh Weight Increase (corn [2]; foliar spray 2 μg/ml): 4.36* %
GDLQGSGASTQDTSGMSPMEQLMKIFADITQSLFGDQDG (P12-2 peptide) [Peptide P12-2] | 3.55% | 7.83** % |  |  |  |  |  |  | 
AGQTSGLSPLEQLLKIFADITQSLFG (P13-23 peptide) [Peptide P13-23] |  |  | 0.94% | 4.89** % |  |  | 2.16% | 5.54** % | % Change Dry Weight (soy [5]): 6.43%; % Change Fresh Weight (soy [5]): 5.08%; Drought tolerance activity in corn, result in words (corn [3]): affords activity

Reference: patent publication US20180362993A1, “ELICITOR-DERIVED PEPTIDES AND USE THEREOF” (Plant Health Care, Inc., priority 2017, published 2018)
